Tests used:
STAT5b = target: T1, STAT5b (Homo sapiens, UniProt P51692); assay: Fluorescence polarization (FP) binding assay, STAT5b; settings: for inhibition at 200 µM: read-out: STAT5b inhibition at 200 μM
T1 sequence (P51692 1-787): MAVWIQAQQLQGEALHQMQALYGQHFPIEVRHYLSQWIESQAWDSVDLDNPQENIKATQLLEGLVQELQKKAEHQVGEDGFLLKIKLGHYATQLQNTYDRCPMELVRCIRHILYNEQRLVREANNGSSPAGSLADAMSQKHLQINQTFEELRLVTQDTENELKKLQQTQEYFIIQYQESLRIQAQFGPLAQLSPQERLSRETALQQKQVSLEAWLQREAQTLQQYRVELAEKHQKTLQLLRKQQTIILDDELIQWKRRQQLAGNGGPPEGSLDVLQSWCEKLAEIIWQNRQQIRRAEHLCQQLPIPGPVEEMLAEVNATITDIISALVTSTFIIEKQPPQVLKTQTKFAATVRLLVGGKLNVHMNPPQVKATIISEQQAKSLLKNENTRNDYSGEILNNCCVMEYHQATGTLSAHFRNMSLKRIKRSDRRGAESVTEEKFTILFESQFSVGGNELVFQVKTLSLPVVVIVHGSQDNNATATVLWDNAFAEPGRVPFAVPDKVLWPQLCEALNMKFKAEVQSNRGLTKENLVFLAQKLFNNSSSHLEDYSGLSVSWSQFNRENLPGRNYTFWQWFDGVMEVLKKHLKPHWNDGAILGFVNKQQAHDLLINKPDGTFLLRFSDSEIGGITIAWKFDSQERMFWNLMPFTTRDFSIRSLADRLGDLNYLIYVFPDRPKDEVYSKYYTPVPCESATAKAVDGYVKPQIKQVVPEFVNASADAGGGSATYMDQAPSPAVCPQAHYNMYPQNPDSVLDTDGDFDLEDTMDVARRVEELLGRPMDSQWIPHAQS
Protocol: (§1) Table S1: Activities of test compounds against STAT5a and STAT5b in FP assays . Experiments were carried out in triplicate (n = 3) unless stated otherwise. n/a: not applicable.
(§2) [a]data taken from the literature.[1]
(§3) Ki values were calculated from IC50 values using the published equation.[2] […]
(§4) Table S2: Activities of 12 against STAT5 proteins in FP assays.
(§5) Fluorescence polarization assays
(§6) Fluorescence polarization assays were essentially carried out as previously described.[1] These assays quantitate to which extent a test compound is able to interfere with binding between a STAT protein and a fluorescein-labeled phosphotyrosine-containing peptide, which is known to bind to the SH2 domain of the respective STAT protein. The following protein […]
(§7) concentrations were used: 100 nM for STAT1, 150 nM for STAT3, 30 nM for STAT4, 180 nM for STAT5a, 90 nM for STAT5b and 105 nM for STAT6. All peptides were used at a concentration of 10 nM. The following peptides were used: 5 -carboxyfluorescein -GpYDKPHVL for STAT1; 5-carboxyfluorescein -GpYLPQTV-NH2 for STAT3; 5-carboxyfluorescein-GpYLPQNID-OH for STAT4; 5-carboxyfluorescein-GpYLVLDKW for STAT5a/b, and 5-carboxyfluorescein-GpYVPWQDLI-OH for STAT6. As a buffer system, 10 mM Tris (pH 8.0), 50 mM NaCl, 1 mM EDTA, 1 mM DTT, 0.1 % Nonidet P-40 substitute, and 2 % DMSO in water was used. All compounds tested were incubated for 1 h with the protein. Subsequently, the fluorescein-labeled peptide was added and the fluorescence polarization was measured with an Infinite F500 plate reader (Tecan) after another hour. IC50 values were converted to Ki-values using the published equation.[2]

STAT5a [1] = target: T2, STAT5a (Homo sapiens, UniProt P42229); assay: Fluorescence polarization (FP) binding assay, STAT5a
T2 sequence (P42229 1-794): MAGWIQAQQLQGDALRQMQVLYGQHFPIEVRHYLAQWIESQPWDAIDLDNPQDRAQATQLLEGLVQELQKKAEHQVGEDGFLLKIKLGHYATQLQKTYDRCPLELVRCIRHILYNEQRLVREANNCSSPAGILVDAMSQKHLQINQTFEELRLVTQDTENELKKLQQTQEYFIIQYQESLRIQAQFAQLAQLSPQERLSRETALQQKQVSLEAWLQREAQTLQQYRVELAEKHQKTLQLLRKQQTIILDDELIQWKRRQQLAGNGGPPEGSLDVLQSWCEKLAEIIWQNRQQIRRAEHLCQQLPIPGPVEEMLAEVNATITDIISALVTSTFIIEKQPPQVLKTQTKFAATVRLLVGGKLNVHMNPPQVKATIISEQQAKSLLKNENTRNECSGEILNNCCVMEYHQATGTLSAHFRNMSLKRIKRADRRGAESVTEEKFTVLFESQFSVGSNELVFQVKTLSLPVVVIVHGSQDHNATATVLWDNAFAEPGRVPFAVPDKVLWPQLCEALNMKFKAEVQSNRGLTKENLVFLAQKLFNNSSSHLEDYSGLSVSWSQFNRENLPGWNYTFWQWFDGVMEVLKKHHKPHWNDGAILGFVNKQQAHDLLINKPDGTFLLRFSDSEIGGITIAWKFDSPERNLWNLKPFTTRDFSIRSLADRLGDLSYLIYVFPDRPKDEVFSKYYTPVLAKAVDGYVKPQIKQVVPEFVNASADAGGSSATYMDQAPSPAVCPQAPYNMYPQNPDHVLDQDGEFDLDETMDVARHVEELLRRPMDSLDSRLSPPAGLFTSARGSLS
Protocol: as §1, §2, §3, §4, §5, §6, §7

STAT5a [2] = target: T2, STAT5a; settings: cited from earlier work

Row | SMILES | melting point [°C] | IC50 (STAT5b) [µM] | Ki (STAT5b) [µM] | IC50 (STAT5a [1]) [µM] | Ki (STAT5a [1]) [µM] | inhibition at 200 µM (STAT5b) [%] | selectivity for STAT5a over STAT5b (STAT5a [2])
1 | COc1cc(-c2cc(OP(=O)(O)O)cc(-c3ccc(Cl)cc3)c2)cc(OC)c1OC [6 c] | 129 | 93.8 ± 1.5 | 46.1 ± 0.8 | 45.7 ± 3.3 | 22.6 ± 1.6 |  | 
2 | COc1cc(-c2cc(OP(=O)(O)O)cc(-c3ccc(C(C)C)cc3)c2)cc(OC)c1OC [6 i] | 182 | 51.8 ± 5.1 | 25.5 ± 2.5 | 48.5 ± 4.8 | 24 ± 2.4 |  | 
3 | COc1cc(-c2cc(OP(=O)(O)O)cc(-c3ccc(Cl)c(F)c3)c2)cc(OC)c1OC [6 e] | 127 | 104 ± 9.5 | 51.2 ± 4.7 | 34.7 ± 4.4 | 17.1 ± 2.2 |  | 
4 | COc1cc(-c2cc(OP(=O)(O)O)cc(-c3ccc(F)cc3)c2)cc(OC)c1OC [6 d] | 165 |  |  | 66.5 ± 5 | 33 ± 2.5 | 51 ± 4 | 
5 | CCOC(=O)c1ccc(-c2cc(OP(=O)(O)O)cc(-c3cc(OC)c(OC)c(OC)c3)c2)cc1 [6 g] | 150 | 125 ± 3.7 | 61.3 ± 1.8 | 91.2 ± 5.5 | 45.2 ± 2.7 |  | 
6 | COc1cc(-c2cc(OP(=O)(O)O)cc(-c3ccc(C(C)(C)C)cc3)c2)cc(OC)c1OC [6 j] |  | 51.4 ± 4.9 | 25.3 ± 2.4 | 66.9 ± 4.9 | 33.2 ± 2.4 |  | 
7 | COc1cc(-c2cc(OP(=O)(O)O)cc(-c3cc(Cl)c(Cl)c(Cl)c3)c2)cc(OC)c1OC [6 a] |  | 47 ± 2.6 | 23.1 ± 1.3 | 21.8 ± 0.9 | 10.2 ± 0.4 |  | 
8 | COc1cc(-c2cc(OP(=O)(O)O)cc(-c3ccc(C(=O)O)cc3)c2)cc(OC)c1OC [6 h] | 152 |  |  | 36.8 ± 2.2 | 18.2 ± 1.1 | 50 ± 2 | 
9 | COc1cc(-c2cc(OP(=O)(O)O)cc(-c3ccc(C(N)=O)cc3)c2)cc(OC)c1OC [6 f] |  |  |  | 68.9 ± 4.9 | 34.1 ± 2.4 | 21 ± 6 | 
10 | COc1cc(-c2cc(OP(=O)(O)O)cc(-c3cc(OC)c(OC)c(OC)c3)c2)cc(OC)c1OC [compound 1] |  |  |  |  |  |  | at least 9 fold
